Assay results as given in patent publication US20120107428A1, “REPELLENTS FOR PESTIFEROUS SOCIAL WASPS” (Sterling International Inc., priority 2010, published 2012).
Where a name gives a salt, the structure may show the parent alone.

Legend:
[1] = system: vespid wasps (paper wasps, hornets and yellowjackets); assay: Field trapping experiments, repellency stated for vespid wasps as a whole (yellowjackets and paper wasps; summaries); format: in vivo, Vespula pensylvanica; Polistes dominulus; conditions: Experiment 9; AA/2 MB
Description: (§1) Eleven field trapping experiments were carried out from late August to mid-October 2009 in residential and woody areas around Spokane, Wash., USA, mostly using the trap known by the designation Rescue® W•H•Y (except on one occasion that Rescue® Reusable Yellowjacket Traps were used for a natural food attractant; see below for details). The commercial W•H•Y trap has a top chamber and a bottom chamber and is described in U.S. Patent Application Publication No. 2009/0151228. The top chamber is baited with two attractants—one of which is a solid contained in a vial (2-methyl-1-butanol), and the other is a liquid mixed with water (acetic acid). The bottom chamber is baited with a liquid attractant (heptyl butyrate) poured onto a cotton pad. Separation of the two types of attractants (otherwise antagonistic to each other when released from the same chamber) in two chambers creates two focal attraction sources from one trap for different species of wasps, hornets, and yellowjackets. […] In a special occasion, the commercial Rescue® Reusable Yellowjacket Traps were each baited with 10 g of chopped bacon (loaded into a cartridge) as a natural protein food attractant. Traps were hung 1.5-2.0 m above the ground on either fences or tree branches ca. 5 m apart between each trap and at least 15 m between sets. For each trapping experiment, three sets of traps (i.e., three physical replicates of each treatment) were deployed with their initial trap positions within each set being randomized. To minimize positional effects and obtain more replications, wasp collections and trap re-randomization were carried out when 5-10 wasps were caught in the best traps. Each replicate lasted several days depending on wasp flight activity. Captured wasps were removed from the traps and kept in the zip-bags before returning to the laboratory for recording of the species, gender status, and catch. Repellent candidates (individuals or mixtures) were released from polyethylene bags (3×5 cm; with a fabric felt) with various thicknesses from 2-12 mil (see release rates listed in tables); they were employed inside the same trap chamber as the attractant.
(§2) Experiment 1 tested five individual essential oils (pennyroyal, lemongrass, peppermint, clove, and citronella) and two known mosquito repellents (i.e., major components of catnip oil), E/Z-nepetalactone and Z/E-nepetalactone plus a blank control against a mixture of attractant [acetic acid (AA) and 2-methyl-1-butanol (2 MB)] using the W•H•Y traps (both attractant and repellent candidates were released from the top chamber) from for eight consecutive days from August to early September. Experiment 2 tested nine individual essential oils (ylang ylang, vetiver, myrrh, patchouli, geranium, eucalyptus, camphor, spearmint, and wintergreen) plus a blank control against a mixture of attractant (AA+2 MB) using the W•H•Y traps (both attractant and repellent candidates were released from the top chamber) for eight consecutive days from late August to early September. Experiment 3 tested seven individual essential oils (Roman chamomile, sage, fennel seed, rosemary, thyme, anise, and lavender) plus a blank control against a mixture of attractant (AA+2 MB) using the W•H•Y traps (both attractant and repellent candidates were released from the top chamber) for eight consecutive days from late August to early September. Experiment 4 tested two essential oil mixtures (3EO-mix: clove, geranium, and lemongrass in ca. 1:1:1 ratio; and 4EO-mix: clove, geranium, lemongrass, and rosemary in ca. 1:1:1:1 ratio) plus a blank control against a mixture of attractant (AA+2 MB) using the W•H•Y traps (both attractant and repellent candidates were released from the top chamber) for 13 consecutive days in September; the essential oil mixtures alone without attractant were tested in the same experiment.

[2] = system: Paper wasps (mainly Polistes dominulus, plus a few of P. aurifer); assay: Field trapping, Rescue W•H•Y traps baited with attractant AA/2MB: captures of paper wasps; format: in vivo; conditions: for Mean/trap/visit ± SE Paper wasps: attractant AA/2MB alone (row AA/2MB) or plus chemical, N 9
Description: as §1, §2

[3] = system: Yellowjackets (mainly Vespula pensylvanica (ca. 90%), plus V. vulgaris, V. germanica, and Dolichovespula maculata); assay: Field trapping, Rescue W•H•Y traps baited with attractant AA/2MB: captures of yellowjackets; format: in vivo; conditions: for Mean/trap/visit ± SE Yellowjackets: attractant AA/2MB alone (row AA/2MB) or plus chemical, N 9
Description: as §1, §2

[4] = system: worker antennae of Vespula pensylvanica, Dolichovespula maculata, Polistes dominulus, and P. aurifer; assay: GC-EAD/MS analysis of SPME headspace samples of essential oils: antennal responses; conditions: for antennal (EAD) response to component of rosemary oil: V. pensylvanica and D. maculata antennae, FIG. 3
Description: Headspace volatiles from greater than 10 types of essential oils (1 ml each in a closed 20 ml glass vial) were sampled via Solid-Phase Micro-Extraction (SPME) (CAR/PDMS, 85 μm, Supelco, Bellefonte, Pa.) for 20-30 sec before GC-EAD and GC-MS analyses.
Paper wasp [European paper wasp (Polistes dominulus) or golden paper wasp (P. aurifer)] and yellowjacket [Western yellowjacket (Vespula pensylvanica) or Bald-faced hornet (Dolichovespula maculata)] workers for electrophysiological study were collected from their nests and kept alive at 4° C. before testing.
SPME samples of the various essential oils were injected splitless into a Varian CP-3800 GC equipped with a polar column (HP-INNOWAX; 30 m×0.53 mm×1.0 μm film thickness; Agilent Technologies, Wilmington, Del., USA) and a 1:1 effluent splitter that allowed simultaneous flame ionization detection (FID) and electroantennographic detection (EAD) of either a yellowjacket or paper wasp worker antenna to the separated volatile compounds. Helium was used as the carrier gas, and the injector and detector temperatures were 250° C. and 300° C., respectively. Column temperature was 50° C. for 1 min, rising to 240° C. at 10° C./min, and then held for 10 min. The outlet for the EAD was held in a humidified air stream flowing at 0.5 m/sec over the antennal preparation. EAD recordings were made using silver wire-glass capillary electrodes filled with Beadle-Ephrussi Ringer on freshly cut antennae. The antennal signals were stored and analyzed on a PC equipped with a serial IDAC interface box and the program EAD ver. 2.5 (Syntech, Hilversum, The Netherlands).
Compounds were identified by comparison of retention times with those of authentic standards and with mass spectra of standards.

[5] = Table 8, Experiment 9, 13 days in September
[6] = Table 7, Experiment 8, 13 days in September
[7] = V. pensylvanica, D. maculata, P. dominulus, or P. aurifer antennae
[8] = Table 9, Experiment 10, 18 days end of September through mid-October
[9] = V. pensylvanica and P. dominulus worker antennae

CC1=CC(=O)[C@H]2C[C@@H]1C2(C)C [(−)-Verbenone, (−)-verbenone] was tested, and the “activity at doses tested” value [1] was “inactive”, the “Mean/trap/visit ± SE Paper wasps” value [2, 5] was 2.9 ± 0.9 ab wasps/trap/visit and the “Mean/trap/visit ± SE Yellowjackets” value [3, 5] was 18.7 ± 5.9 b wasps/trap/visit.

In the case of CC(C)[C@@H]1CC[C@@H](C)CC1=O [Menthone, menthone], the “trap catch reduction to the paper wasps” value ([2]; Experiment 8, AA/2 MB, not statistically different from the attractant alone) was > 50%, the “Mean/trap/visit ± SE Paper wasps” value [2, 6] was 2.1 ± 1.3 a wasps/trap/visit and the “antennal (EAD) response to component of geranium oil” value (“antennal … of geranium oil” for short) [4, 7] was “significant and consistent EAD-responses”. For the same compound, the “antennal (EAD) response to component of pennyroyal oil” value [4, 7] was “significant and consistent EAD-responses”, the “yellowjackets caught, attractant plus compound versus attractant alone” value ([3]; Experiment 8, AA/2 MB) was “four times less” and the “Mean/trap/visit ± SE Yellowjackets” value [3, 6] was 7.7 ± 3.4 a wasps/trap/visit.

For CC(C)=CCCC(C)CC=O (stereo not drawn) [Citronellal, citronellal], the “Mean/trap/visit ± SE Paper wasps” value [2, 8] was 0.4 ± 0.2 a wasps/trap/visit, the “antennal (EAD) response to component of citronella oil” value [4, 9] was “strong and repeatable antennal responses” and the “Mean/trap/visit ± SE Yellowjackets” value [3, 8] was 11.4 ± 5.2 bc wasps/trap/visit.

In the case of CC1=CCC2CC1C2(C)C (stereo not drawn) [α-pinene], the “antennal (EAD) response to component of rosemary oil” value [4] was “significant EAD-responses” and the “antennal (EAD) response to component of sage oil” value (shortened to “antennal … of sage oil”) [4, 9] was “strong and repeatable antennal responses”.

C=C(C)[C@H]1CC=C(C)C(=O)C1 [d-Carvone, d-carvone] was tested, and the “Mean/trap/visit ± SE Paper wasps” value [2, 8] was 0.9 ± 0.5 a wasps/trap/visit, the “antennal (EAD) response to component of spearmint oil” value [4, 7] was “significant and consistent EAD-responses” and the “Mean/trap/visit ± SE Yellowjackets” value [3, 8] was 4.9 ± 2.2 ab wasps/trap/visit.

For α/β-thujone, the “Mean/trap/visit ± SE Paper wasps” value [2, 8] was 0.2 ± 0.1 a wasps/trap/visit, the “antennal … of sage oil” value [4, 9] was “strong and repeatable antennal responses” and the “Mean/trap/visit ± SE Yellowjackets” value [3, 8] was 4.9 ± 1.6 ab wasps/trap/visit.

For E/Z-citral, the “decrease of trap catches of paper wasps” value ([2]; Experiment 9, AA/2 MB) was 88%, the “Mean/trap/visit ± SE Paper wasps” value [2, 5] was 0.6 ± 0.3 a wasps/trap/visit and the “reduction of trap catches of yellowjackets” value ([3]; Experiment 9, AA/2 MB) was “more than 70%”. The “Mean/trap/visit ± SE Yellowjackets” value [3, 5] was 11.6 ± 5.8 a wasps/trap/visit.

In the case of CC(C)=CCCC(C)CCOC=O (stereo not drawn) [citronyl formate, citronellyl formate], the “antennal … of geranium oil” value [4, 7] was “significant and consistent EAD-responses”.

For CC(C)=CCC/C(C)=C/COC=O [Geranyl formate, geranyl formate], the “Mean/trap/visit ± SE Paper wasps” value [2, 6] was 5.8 ± 2.7 a wasps/trap/visit, the “antennal … of geranium oil” value [4, 7] was “significant and consistent EAD-responses” and the “repellency at the doses tested” value ([3]; Experiment 8, AA/2 MB) was “not significantly repellent”. The “Mean/trap/visit ± SE Yellowjackets” value [3, 6] was 28.2 ± 7.0 b wasps/trap/visit.

With CC12CCC(CC1)C(C)(C)O2 [1,8-Cineole, 1,8-cineole] the “Mean/trap/visit ± SE Paper wasps” value [2, 6] was 4.6 ± 1.8 a wasps/trap/visit, the “antennal (EAD) response to component of rosemary oil” value [4] was “significant EAD-responses” and the “antennal (EAD) response to component of lavender oil” value [4, 9] was “strong and repeatable antennal responses”. The “antennal … of sage oil” value [4, 9] was “strong and repeatable antennal responses”, the “antennal (EAD) response to component of spearmint oil” value [4, 7] was “significant and consistent EAD-responses” and the “repellency at the doses tested” value ([3]; Experiment 8, AA/2 MB) was “not significantly repellent”. For the same compound, the “Mean/trap/visit ± SE Yellowjackets” value [3, 6] was 18.2 ± 4.1 b wasps/trap/visit.

With CC(=O)OCc1ccccc1 [Benzyl acetate, benzyl acetate] the “Mean/trap/visit ± SE Paper wasps” value [2, 8] was 0.9 ± 0.5 a wasps/trap/visit, the “antennal (EAD) response to component of ylang ylang oil” value [4, 9] was “strong and repeatable antennal responses” and the “Mean/trap/visit ± SE Yellowjackets” value [3, 8] was 8.2 ± 3.0 abc wasps/trap/visit.

C=CC(C)(O)CCC=C(C)C (stereo not drawn) [Linalool, linalool] was tested, and the “Mean/trap/visit ± SE Paper wasps” value [2, 6] was 5.2 ± 3.5 a wasps/trap/visit, the “antennal (EAD) response to component of lavender oil” value [4, 9] was “strong and repeatable antennal responses” and the “antennal (EAD) response to component of ylang ylang oil” value [4, 9] was “strong and repeatable antennal responses”. For the same compound, the “antennal (EAD) response to component of lemongrass oil” value ([4]; antennae of V. pensylvanica, D. maculata, and Polistes dominulus, FIG. 2) was “strongly responded”, the “repellency at the doses tested” value ([3]; Experiment 8, AA/2 MB) was “not significantly repellent” and the “Mean/trap/visit ± SE Yellowjackets” value [3, 6] was 23.9 ± 4.0 b wasps/trap/visit.
